From US20250213549A1, “COMPOSITION COMPRISING NICOTINAMIDE, NICOTINAMIDE PRECURSORS, NICOTINAMIDE METABOLITES OR COMBINATIONS THEREOF FOR PREVENTING OR REDUCING ONE OR MORE POST-ACUTE SYMPTOMS OF INFECTIOUS DISEASES” (CONARIS Research Institute AG, priority 2022, published 2025)

Legend:
[1] = tested on: antibodies directed against the nucleocapsid (N) protein of SARS-CoV-2; test: Anti-N antibody levels (AProof Duo Test ELISA) at 6-month follow-up, COVit-2 trial; assay type: in vivo, human
[2] = tested on: antibodies directed against the spike (S) protein of SARS-CoV-2; test: Anti-S antibody levels (AProof Duo Test ELISA) at 6-month follow-up, COVit-2 trial; assay type: in vivo, human
Source text: (§1) In the monocentric, randomized, double-blind, prospective, placebo-controlled dietary intervention trial COVit-2 (DRKS00021214; NCT04751604) conducted at the Department of Internal Medicine I of the University Medical Center Schleswig-Holstein, Campus Kiel (Germany), outpatients with early symptomatic COVID-19 (up to 7 days after their first positive SARS-CoV-2 PCR test) in domestic quarantine were recruited from February 2021 to January 2022. As the vaccinations against SARS-CoV-2 became available to the broader public only after several hundred patients had already been recruited into the COVit-2 trial, partly or fully vaccinated patients were excluded from participation to maintain the same inclusion population and ensure formal comparability of all patients within the trial. However, there is no reason or evidence to assume that the fundamental metabolic and microbiota-targeting effects of nicotinamide could be any different in symptomatic COVID-19 patients with or without prior vaccination.
(§2) For details of the trial, see Wätzig & Schreiber 2021, PCT/EP2021/083138. Patients were randomized to oral self-administration (once daily with breakfast for 28 days) of either a combination of two different nicotinamide tablets (one conventional 500-mg immediate-release nicotinamide tablet and one novel 500-mg controlled-ileocolonic-release nicotinamide [CICR-NAM]tablet, which ensures prolonged and continuous intestinal exposure to nicotinamide) or matching placebo tablets. The entire trial was conducted remotely. Patients registered online and were contacted by the study team to check their eligibility and to supply the written patient information and informed consent forms. After informed consent, patients were called for baseline data acquisition (week 0) and subsequently at week 2, week 4 and week 6. The queried baseline information included personal and demographic data, smoking status, comorbidities, concomitant administration of dietary supplements or medicaments as well as COVID-19 symptoms. At weeks 2, 4 and 6, regular intake of the trial supplements and concomitant supplements and medicaments, respectively, was queried as well as the current COVID-19 symptoms and disease course.
For the antibody level measurements, the time between the positive SARS-CoV-2 PCR test and the date of blood sampling for antibody analysis as well as, if applicable, the intervals between one or more subsequent vaccinations against SARS-CoV-2 and the blood sampling date were recorded. Antibody levels were measured using the AProof Duo Test (Adversis Pharma, now AP Diagnostics; Leipzig, Germany). In this test, dried blood spot samples are rehydrated and analysed by ELISAs detecting antibodies directed against the nucleocapsid (N) or spike (S) protein of SARS-CoV-2. Antibodies against the N protein are analysed to evaluate immunity generated only by SARS-CoV-2 infection. After infection with SARS-CoV-2, levels of antibodies against the S protein can represent both the consequences of infection (if no additional vaccination is performed) or of the combined humoral immunity generated by infection and subsequent vaccination(s). Between the 6-week observation period of the acute infection and the follow-up after at least 6 months, many trial participants had been vaccinated against SARS-CoV-2. Anti-N antibody levels were quantified as percent of the signal of a positive control consisting of an anti-N antibody pool from five donors collected at different time points starting 2 weeks after PCR-confirmed infection with SARS-CoV-2. This anti-N antibody pool was diluted in the negative control medium at a fixed ratio. The detection was considered negative if below 20% of the positive control, borderline for 20-30% and positive if above 30%. Anti-S antibody protein levels were quantified as binding antibody units per milliliter (BAU/mL; according to the WHO International Standard for anti-SARS-CoV-2 immunoglobulin [human][NIBSC code 20/136]). […]

[3] = tested on: COVID-19 patients (PCS symptoms); test: Perceived Stress Scale (PSS) at 6-month follow-up, COVit-2 pilot population; assay type: in vivo, human; conditions: pilot population n=50
Source text: (§3) In the monocentric, randomized, double-blind, prospective, placebo-controlled dietary intervention trial COVit-2 (DRKS00021214; NCT04751604) conducted at the Department of Internal Medicine I of the University Medical Center Schleswig-Holstein, Campus Kiel (Germany), outpatients with early symptomatic COVID-19 (up to 7 days after their first positive SARS-CoV-2 PCR test) in domestic quarantine were recruited from February 2021 to January 2022. […]
(§4) Approximately 6 months after infection, patients were contacted for follow-up interviews and a large battery of questionnaires and tests including antibody level measurements. […] A validated smell test (University of Pennsylvania Smell Identification Test™; Sensonics/MediSense) was performed by the patient and recorded as patient-reported outcome by a paper questionnaire. Questionnaires on olfactory and gustatory abilities (incl. the Self-reported Mini Olfactory Questionnaire, Self-MOQ, and the Questionnaire of Olfactory Disorders, QOD), respiration (Multidimensional Dyspnea Profile, MDP), mental state (Patient Health Questionnaire Depression, PHQ-8; Generalised Anxiety Disorder 7, GAD-7; Perceived Stress Scale, PSS; Brief Resilience Scale, BRS), sleep quality (Pittsburgh Sleep Quality Index, PSQI) and fatigue (Multidimensional Fatigue Inventory, MFI) were recorded as patient-reported outcomes by paper questionnaires. […]

[4] = tested on: COVID-19 patients (PCS symptoms); test: Patient Health Questionnaire Depression (PHQ-8) at 6-month follow-up, COVit-2 pilot population; assay type: in vivo, human; conditions: pilot population n=50
Source text: as §3, §4

[5] = tested on: COVID-19 patients (PCS symptoms); test: Generalised Anxiety Disorder 7 (GAD-7) at 6-month follow-up, COVit-2 pilot population; assay type: in vivo, human; conditions: pilot population n=50
Source text: as §3, §4

[6] = tested on: COVID-19 patients (PCS symptoms); test: University of Pennsylvania Smell Identification Test (UPSIT) at 6-month follow-up, COVit-2 pilot population; assay type: in vivo, human; conditions: pilot population n=50
Source text: as §3, §4

[7] = tested on: COVID-19 patients (PCS symptoms); test: Cognition test T3MS at 6-month follow-up, COVit-2 pilot population; assay type: in vivo, human
Source text: as §3, §4

COVID-19 patients [8] = test: Impaired sense of smell in acute COVID-19 (patient interviews, change to baseline), COVit-2 risk factor population; assay type: in vivo, human; conditions: for Impaired sense of smell: Persistence (no change), frequency / Impaired sense of smell: Resolution of impairment (return to normal), frequency / Impaired sense of smell: Worsening (new impairment), frequency: number of patients
Source text: as §1, §2
(§5) The COVit-2 trial (see Example 2) was expanded to a total of n=900 randomized patients. Of these, n=500 patients had at least one characteristic or underlying medical condition associated with an increased risk of developing severe illness from COVID-19, which was the population that had benefited most from nicotinamide supplementation in the acute phase of the disease (Wätzig & Schreiber 2021, PCT/EP2021/083138) and is hereinafter referred to as ‘risk factor population’.
(§6) In contrast, in the final analysis of n=500 patients of the risk factor population (the primary analysis population for acute COVID-19 in the COVit-2 trial), there was rather a trend favouring placebo, as evidenced by the rates of resolved, constant or newly occurring impairment shown in Table 2 to Table 5 below.
(§7) Here, the efficacy variables “impaired sense of smell” (yes/no) and “impaired sense of taste” (yes/no) from patient interviews represent the broadest and most sensitive approach, as other more specific tests or questions miss aspects of smell or taste that are not explicitly queried and thus may fail to detect significant differences. In the acute phase of the COVit-2 trial, these variables were analyzed using change to baseline, considered as resolution (symptom present at baseline but not at week x), persistence (no change compared to baseline) or worsening (symptom present at week x but not at baseline). The frequency of patients with symptom resolution, persistence or worsening for all weeks by treatment group was compared using the Cochran-Mantel-Haenszel test. Post-hoc tests for each week were calculated using the Fisher Exact test with Benjamini & Hochberg adjustment for multiple testing. The Woolfe test was performed to test for homogeneity of odds ratios across time. […]

COVID-19 patients [9] = test: Impaired sense of taste in acute COVID-19 (patient interviews, change to baseline), COVit-2 risk factor population; assay type: in vivo, human; conditions: for Impaired sense of taste: Persistence (no change), frequency / Impaired sense of taste: Resolution of impairment (return to normal), frequency / Impaired sense of taste: Worsening (new impairment), frequency: number of patients
Source text: as §1, §2, §5, §6, §7

COVID-19 patients [10] = test: Impaired sense of smell at 6 months after COVID-19, COVit-2 risk factor population; assay type: in vivo, human
Source text: as §2, with “At weeks 2, 4 and 6, regular intake of the trial supplements and concomitant supplements and medicaments, respectively, was queried as well as the current COVID-19 symptoms and disease course.” left out
(§8) Approximately 6 months after infection, patients were contacted for follow-up interviews and a large battery of questionnaires and tests including antibody level measurements. […] A validated smell test (University of Pennsylvania Smell Identification Test™; Sensonics/MediSense) was performed by the patient and recorded as patient-reported outcome by a paper questionnaire. […]

COVID-19 patients [11] = test: Impaired sense of taste at 6 months after COVID-19, COVit-2 risk factor population; assay type: in vivo, human
Source text: as §2, with “At weeks 2, 4 and 6, regular intake of the trial supplements and concomitant supplements and medicaments, respectively, was queried as well as the current COVID-19 symptoms and disease course.” left out
as §8

COVID-19 patients [12] = conditions: week 2; of 92 patients treated with nicotinamide
COVID-19 patients [13] = conditions: acute phase, baseline until Week 6, mainly at week 2; interim analysis n=402; cited from earlier work
COVID-19 patients (PCS) = test: PCS score at 6 months after COVID-19 in PCS risk factor population, COVit-2; conditions: PCS risk factor population (more than 5 predictors), N = 70
Source text: In this PCS score, 12 long-term symptom complexes (fatigue, cough/wheezing, neurological ailments, joint/muscle pain, ear-nose-throat ailments, gastrointestinal ailments, sleeping disturbance, exercise intolerance, infection signs, chemosensory deficits, chest pain and dermatological ailments) are combined with different weights.
In order to characterize a relevant subpopulation of the risk factor population as defined above that was additionally at risk for the development of PCS, baseline characteristics and symptoms of all available patients of the placebo population (n=425) were used to identify predictors for a PCS score of ≥5 at month 6 with a significance threshold of P<0.05. These predictors were the following: • medical history: chronic obstructive pulmonary disease, organ transplantation, depression, other chronic diseases, permanent intake of medication; • symptoms from the onset of COVID-19 until the trial baseline: shortness of breath, whistling/wheezing breathing, dizziness, vomiting, conjunctivitis; • at baseline: shortness of breath, whistling/wheezing breathing, dizziness, conjunctivitis, chills, muscle pain, limb pain, limitation of activity (a score of 2 in the WHO scale of COVID-19 severity developed in 2020; https://apps.who.int/iris/rest/bitstreams/1266940/retrieve, last accessed on 20 Mar. […]

[14] = first 50 patients per trial arm
[15] = n=50, negative if below 20% of positive control
[16] = n=50, positive if above 30% of positive control
[17] = n=50, negative if below 22 BAU/mL
[18] = n=50, positive if above 44 BAU/mL
[19] = acute phase, baseline until Week 6
[20] = 6 months after COVID-19, N = 236

## NC(=O)c1cccnc1 [Nicotinamide, nicotinamide]
[1]; [14]
  Anti-N antibodies, median: 10% + control
[1]; [15]
  Anti-N antibodies, % negative: 66%
  Anti-N antibodies, n negative: 33
[1]; [16]
  Anti-N antibodies, % positive: 28%
  Anti-N antibodies, n positive: 14
[2]; [14]
  Anti-S antibodies, median: 813 BAU/mL
[2]; [17]
  Anti-S antibodies, % negative: 2%
  Anti-S antibodies, n negative: 1
[2]; [18]
  Anti-S antibodies, % positive: 94%
  Anti-S antibodies, n positive: 47
[2]; patients with at least one characteristic or condition associated with increased risk of severe COVID-19
  Anti-S antibodies, median: 1,121 BAU/mL
[3]
  median PSS score: 24
[4]
  median PHQ-8 score: 4
[5]
  median GAD-7 score: 3
[6]
  proportion of patients with strong microsmia/hyposmia (UPSIT score <26): 2%
[7]; patients with increased risk of developing severe COVID-19
  proportion of patients with mild cognitive impairment (T3MS score <89): 10%
[7]; pilot population n=50
  proportion of patients with mild cognitive impairment (T3MS score <89): 8%
COVID-19 patients [8]; Week 2
  Impaired sense of smell: Persistence (no change), frequency: 155
  Impaired sense of smell: Resolution of impairment (return to normal), frequency: 61
  Impaired sense of smell: Worsening (new impairment), frequency: 32
COVID-19 patients [8]; Week 4
  Impaired sense of smell: Persistence (no change), frequency: 150
  Impaired sense of smell: Resolution of impairment (return to normal), frequency: 78
  Impaired sense of smell: Worsening (new impairment), frequency: 20
COVID-19 patients [8]; Week 6
  Impaired sense of smell: Persistence (no change), frequency: 141
  Impaired sense of smell: Resolution of impairment (return to normal), frequency: 92
  Impaired sense of smell: Worsening (new impairment), frequency: 15
COVID-19 patients [8]; [19]
  effect on impaired sense of smell: no beneficial effect
COVID-19 patients [9]; Week 2
  Impaired sense of taste: Persistence (no change), frequency: 170
  Impaired sense of taste: Resolution of impairment (return to normal), frequency: 56
  Impaired sense of taste: Worsening (new impairment), frequency: 22
COVID-19 patients [9]; Week 4
  Impaired sense of taste: Persistence (no change), frequency: 159
  Impaired sense of taste: Resolution of impairment (return to normal), frequency: 74
  Impaired sense of taste: Worsening (new impairment), frequency: 15
COVID-19 patients [9]; Week 6
  Impaired sense of taste: Persistence (no change), frequency: 157
  Impaired sense of taste: Resolution of impairment (return to normal), frequency: 83
  Impaired sense of taste: Worsening (new impairment), frequency: 8
COVID-19 patients [9]; [19]
  effect on impaired sense of taste: no beneficial effect
COVID-19 patients [10]; [20]
  Impaired sense of smell, % of patients: 11.02%
COVID-19 patients [10]; after six months
  effect on frequency of impaired sense of smell: significantly reduced frequencies
COVID-19 patients [11]; [20]
  Impaired sense of taste, % of patients: 8.05%
COVID-19 patients [11]; after six months
  effect on frequency of impaired sense of taste: significantly reduced frequencies
COVID-19 patients [12]
  shortness of breath: patients recovered: 56
COVID-19 patients [13]
  benefit with regard to parameters of physical performance: biologically and statistically significant benefit
COVID-19 patients (PCS)
  PCS score, mean: 3.66
